Legend:
[1] = test system: peptide-pulsed C1R-A02 cells; assay: IFN-gamma ELISPOT assay on CTLs induced with KNTC2 peptides; format: cell-based, human; details: CTLs induced with peptide-pulsed DCs from HLA-A*0201 positive donor; peptide-pulsed C1R-A02 cells vs control wells
Description: Monocyte-derived dendritic cells (DCs) were used as antigen-presenting cells to induce cytotoxic T lymphocyte (CTL) responses against peptides presented on human leukocyte antigen (HLA). DCs were generated in vitro as described elsewhere (Nakahara S et al., Cancer Res 2003 Jul. 15, 63(14): 4112-8). Specifically, peripheral blood mononuclear cells isolated from a normal volunteer (HLA-A*0201 positive) by Ficoll-Paque plus (Pharmacia) solution were separated by adherence to a plastic tissue culture dish (Becton Dickinson) so as to enrich them as the monocyte fraction. The monocyte-enriched population was cultured in the presence of 1000 IU/ml of granulocyte-macrophage colony-stimulating factor (R&D System) and 1000 IU/ml of interleukin (IL)-4 (R&D System) in AIM-V Medium (Invitrogen) containing 2% heat-inactivated autologous serum (AS). After 7 days of culture, the cytokine-induced DCs were pulsed with 20 micro g/ml of each of the synthesized peptides in the presence of 3 micro g/ml of beta 2-microglobulin for 3 hr at 37 degrees C. in AIM-V Medium. The generated cells appeared to express DC-associated molecules, such as CD80, CD83, CD86 and HLA class II, on their cell surfaces (data not shown). These peptide-pulsed DCs were then inactivated by X ray-irradiated (20 Gy) and mixed at a 1:20 ratio with autologous CD8+ T cells, obtained by positive selection with CD8 Positive Isolation Kit (Dynal). These cultures were set up in 48-well plates (Corning); each well contained 1.5×10^4 peptide-pulsed DCs, 3×10^5 CD8+ T cells and 10 ng/ml of IL-7 (R&D System) in 0.5 ml of AIM-V/2% AS medium. Three days later, these cultures were supplemented with IL-2 (CHIRON) to a final concentration of 20 IU/ml. On day 7 and 14, the T cells were further stimulated with the autologous peptide-pulsed DCs. The DCs were prepared each time by the same way described above. CTL was tested against peptide-pulsed C1R-A02 cells after the 3rd round of peptide stimulation on day 21 (Tanaka H et al., Br J Cancer 2001 Jan. 5, 84(1): 94-9; Umano Y et al., Br J Cancer 2001 Apr. 20, 84(8): 1052-7; Uchida N et al., Clin Cancer Res 2004 Dec. 15, 10(24): 8577-86; Suda T et al., Cancer Sci 2006 May, 97(5): 411-9; Watanabe T et al., Cancer Sci 2005 August, 96(8): 498-506).
(§1) To examine specific CTL activity, IFN-gamma ELISPOT assay and IFN-gamma ELISA were performed. Peptide-pulsed C1R-A02 cells (1×10^4/well) were prepared as stimulator cells. Cultured cells in 48-well plate, CTL lines and CTL clones were used as responder cells. IFN-gamma ELISPOT assay and IFN-gamma ELISA were performed under the manufacturer's procedure.

[2] = test system: peptide-pulsed C1R-A02 cells; assay: IFN-gamma ELISA of CTL lines; format: cell-based, human; details: target cells pulsed with corresponding peptide vs without peptide pulse
Description: CTLs were expanded in culture using the method similar to the one described by Riddell et al. (Walter E A et al., N Engl J Med 1995 Oct. 19, 333(16): 1038-44; Riddell S R et al., Nat Med 1996 Feb. 2(2): 216-23). A total of 5×10^4 CTLs were suspended in 25 ml of AIM-V/5% AS medium with 2 kinds of human B-lymphoblastoid cell lines, inactivated by Mitomycin C, in the presence of 40 ng/ml of anti-CD3 monoclonal antibody (Pharmingen). One day after initiating the cultures, 120 IU/ml of IL-2 were added to the cultures. The cultures were fed with fresh AIM-V/5% AS medium containing 30 IU/ml of IL-2 on days 5, 8 and 11 (Tanaka H et al., Br J Cancer 2001 Jan. 5, 84(1): 94-9; Umano Y et al., Br J Cancer 2001 Apr. 20, 84(8): 1052-7; Uchida N et al., Clin Cancer Res 2004 Dec. 15, 10(24): 8577-86; Suda T et al., Cancer Sci 2006 May, 97(5): 411-9; Watanabe T et al., Cancer Sci 2005 August, 96(8): 498-506).
as §1

[3] = test system: C1R-A02 cells pulsed with corresponding peptide; assay: IFN-gamma ELISA of CTL clones established by limiting dilution; format: cell-based, human
Description: The dilutions were made to have 0.3, 1, and 3 CTLs/well in 96 round-bottomed micro titer plate (Nalge Nunc International). CTLs were cultured with 1×10^4 cells/well of 2 kinds of human B-lymphoblastoid cell lines, 30 ng/ml of anti-CD3 antibody, and 125 IU/ml of IL-2 in a total of 150 micro 1/well of AIM-V Medium containing 5% AS. 50 micro 1/well of IL-2 were added to the medium 10 days later to reach a final concentration of 125 IU/ml IL-2. CTL activity was tested on the 14th day, and CTL clones were expanded using the same method as described above (Uchida N et al., Clin Cancer Res 2004 Dec. 15, 10(24): 8577-86; Suda T et al., Cancer Sci 2006 May, 97(5): 411-9; Watanabe T et al., Cancer Sci 2005 August, 96(8): 498-506).
as §1

[4] = test system: COS7 cells transfected with KNTC2 and HLA-A*0201; assay: Specific CTL activity against target cells expressing KNTC2 and HLA-A*0201; format: cell-based, African green monkey
Description: The cDNA encoding an open reading frame of target genes or HLA-A*0201 was amplified by PCR. The PCR-amplified product was cloned into expression vector. The plasmids were transfected into COS7, which is the target genes and HLA-A*0201-null cell line, using lipofectamine 2000 (Invitrogen) according to the manufacturer's procedure. After 2 days from transfection, the transfected cells were harvested with versene (Invitrogen) and used as the stimulator cells (5×10^4 cells/well) for CTL activity assay.
The established CTL line raised against KNTC2-A02-9-184 (SEQ ID NO: 7) peptide was examined for the ability to recognize target cells that express KNTC2 and HLA-A*0201 molecule. COS7 cells transfected with both the full length of KNTC2 and HLA-A*0201 gene (a specific model for the target cells that express KNTC2 and HLA-A*0201 gene) were prepared as a stimulator cells, and COS7 cells transfected with either full length of KNTC2 or HLA-A*0201 were used as the controls.

Sequence | Peptide specific CTL activity (IFN-gamma production) by IFN-gamma ELISPOT [1] | IFN-gamma production of CTL lines by IFN-gamma ELISA [2] | IFN-gamma production of CTL clones by IFN-gamma ELISA [3] | CTL activity of CTL line against COS7 cells expressing both KNTC2 and HLA-A*0201 ([4]; COS7 transfected with both full length KNTC2 and HLA-A*0201) | CTL activity of CTL line against control COS7 cells ([4]; COS7 transfected with either full length KNTC2 or HLA-A*0201)
AILDQKLNGL (a peptide derived from KNTC2) [SEQ ID NO: 53, 10mer peptide derived from KNTC2, start position 322] | potent IFN-gamma production |  |  |  | 
ALVWLIDCI (a peptide derived from KNTC2) [SEQ ID NO: 7, 9mer peptide derived from KNTC2, start position 184] | potent IFN-gamma production | potent IFN-gamma production | Potent IFN-gamma production | potent CTL activity | no significant specific CTL activity was detected
FLYGFLCPS (a peptide derived from KNTC2) [SEQ ID NO: 2, 9mer peptide derived from KNTC2, start position 131] | potent IFN-gamma production | potent IFN-gamma production | Potent IFN-gamma production |  | 
GLNEEIARV (a peptide derived from KNTC2) [SEQ ID NO: 1, 9mer peptide derived from KNTC2, start position 330] | no specific IFN-gamma production |  |  |  | 
IVAALVWLI (a peptide derived from KNTC2) [SEQ ID NO: 3, 9mer peptide derived from KNTC2, start position 181] | potent IFN-gamma production | potent IFN-gamma production | Potent IFN-gamma production |  | 
KIFTFLYGF (a peptide derived from KNTC2) [SEQ ID NO: 17, 9mer peptide derived from KNTC2, start position 127] | potent IFN-gamma production |  |  |  | 
KIFTFLYGFL (a peptide derived from KNTC2) [SEQ ID NO: 41, 10mer peptide derived from KNTC2, start position 127] | potent IFN-gamma production |  |  |  | 
LVWLIDCIKI (a peptide derived from KNTC2) [SEQ ID NO: 68, 10mer peptide derived from KNTC2, start position 185] | potent IFN-gamma production |  |  |  | 
